Assay results published in PMC6018746, “Activation of the p53-MDM4 regulatory axis defines the anti-tumour response to PRMT5 inhibition through its role in regulating cellular splicing” (Scientific Reports, 2018).
Like-named read-outs stand apart in the source and are kept apart here.

Test system: panel of hematologic and solid cancer lines
Test: 6-day in vitro growth/death assay
Type: cell-based, human
Details: read-out: gIC50
Protocol: To further develop these molecules and to guide clinical strategy, it was necessary to understand sensitivity in preclinical models by assessing the anti-tumour activity of the PRMT5 inhibitors in various cancers.
Cell lines were obtained from ATCC or DSMZ and were grown in recommended medium, which was most frequently RPMI-1640 containing 10% FBS. Cell line proliferation assays, Western blotting, qRT-PCR, and cell cycle analyses were performed as described previously[27],[28]. Antibody and gene expression reagents are as described in Supplementary Table 16. All studies were conducted in accordance with the GSK Policy on the Care, Welfare and Treatment of Laboratory Animals and were reviewed by the Institutional Animal Care and Use Committee either at GSK or by the ethical review process at the institution where the work was performed. Detailed descriptions of all methods can be found in the Supplemental Materials.

O=C(NC[C@H](O)CN1CCc2ccccc2C1)c1ccnc(NC2CCC2)c1 [GSK3203591]
IC50 5637: 143 nM
IC50 (A172): 590 nM
IC50 (BJAB): 3100 nM
IC50 (DOHH-2): 116 nM
IC50 (HCC70): 522 nM
IC50 (HCC1143): 509 nM
IC50 (HCC1806): 261 nM
IC50 (Homo sapiens, 1A2, 1A2): 333 nM
IC50 (Homo sapiens, 22Rv1, 22Rv1): 23500 nM
IC50 (Homo sapiens, 639-V): 731 nM
IC50 (Homo sapiens, 647-V): 426 nM
IC50 (Homo sapiens, 769-P): > 29300 nM
IC50 (Homo sapiens, 5637): 143 nM
IC50 (Homo sapiens, A 172, A172): 590 nM
IC50 (Homo sapiens, A204, A204): > 29000 nM
IC50 (Homo sapiens, A498, A498): 435 nM
IC50 (Homo sapiens, A549, A549): 837 nM
IC50 (Homo sapiens, A-375, A-375): 647 nM
IC50 (Homo sapiens, A-427, A427): 276 nM
IC50 (Homo sapiens, AML-193): 1400 nM
IC50 (Homo sapiens, AMO1, AMO-1): 337 nM
IC50 (Homo sapiens, ARH-77, ARH-77): 238 nM
IC50 (Homo sapiens, ASPC1, ASPC1): 424 nM
IC50 (Homo sapiens, BC-3C): 408 nM
IC50 (Homo sapiens, BFTC-905, BFTC-905): 440 nM
IC50 (Homo sapiens, BJAB): 3100 nM
IC50 (Homo sapiens, BT-20, BT-20): 8160 nM
IC50 (Homo sapiens, BT-474, BT-474): 5740 nM
IC50 (Homo sapiens, BT-549, BT549): 17800 nM
IC50 (Homo sapiens, CA46, CA-46): 580 nM
IC50 (Homo sapiens, CAKI-1, Caki-1): 578 nM
IC50 (Homo sapiens, CAL-29): 817 nM
IC50 (Homo sapiens, CAL-51, CAL-51): 2300 nM
IC50 (Homo sapiens, CAL-85-1, CAL-85-1): 1740 nM
IC50 (Homo sapiens, CAMA-1, CAMA-1): 7330 nM
IC50 (Homo sapiens, CAPAN-1, CAPAN1): 1110 nM
IC50 (Homo sapiens, CHP-212, CHP-212): 16.3 nM
IC50 (Homo sapiens, COLO 201, Colo 201): 661 nM
IC50 (Homo sapiens, COLO 205, Colo 205): 694 nM
IC50 (Homo sapiens, COLO 320DM, COLO-320DM): 2350 nM
IC50 (Homo sapiens, COLO-320-HSR, Colo 320 HSR): 2220 nM
IC50 (Homo sapiens, COLO-741, COLO-741): 2910 nM
IC50 (Homo sapiens, COR-L23, COR-L23): 786 nM
IC50 (Homo sapiens, COR-L105, COR-L105): > 29300 nM
IC50 (Homo sapiens, Caco-2, CaCo-2): 740 nM
IC50 (Homo sapiens, Calu-1, Calu1): > 29300 nM
IC50 (Homo sapiens, Calu-6, Calu6): 1280 nM
IC50 (Homo sapiens, Capan-2, CAPAN2): 1060 nM
IC50 (Homo sapiens, ChaGo-K-1, Cha-Go-K1): 2820 nM
IC50 (Homo sapiens, DB): 346 nM
IC50 (Homo sapiens, DBTRG-05MG, DBTRG05MG): > 29300 nM
IC50 (Homo sapiens, DLD-1, DLD-1): 2430 nM
IC50 (Homo sapiens, DMS-114, DMS114): 9170 nM
IC50 (Homo sapiens, DMS-273, DMS273): 262 nM
IC50 (Homo sapiens, DOHH-2, DOHH-2): 116 nM
IC50 (Homo sapiens, DU-145, DU145): 3720 nM
IC50 (Homo sapiens, DU-4475, DU-4475): 1010 nM
IC50 (Homo sapiens, EBC-1, EBC-1): 239 nM
IC50 (Homo sapiens, EFM-19, EFM-19): 162 nM
IC50 (Homo sapiens, F-36P): 1880 nM
IC50 (Homo sapiens, G-361, G-361): 4360 nM
IC50 (Homo sapiens, G-401, G-401): 189 nM
IC50 (Homo sapiens, GDM-1, GDM-1): 42.3 nM
IC50 (Homo sapiens, GF-D8): 33200 nM
IC50 (Homo sapiens, HCC38, HCC38): 127 nM
IC50 (Homo sapiens, HCC70, HCC70): 522 nM
IC50 (Homo sapiens, HCC827, HCC827): 21000 nM
IC50 (Homo sapiens, HCC1143, HCC1143): 509 nM
IC50 (Homo sapiens, HCC1395, HCC1395): 14700 nM
IC50 (Homo sapiens, HCC1569, HCC1569): 11300 nM
IC50 (Homo sapiens, HCC1806, HCC1806): 261 nM
IC50 (Homo sapiens, HCC1937, HCC1937): 956 nM
IC50 (Homo sapiens, HCC2935, HCC2935): 21600 nM
IC50 (Homo sapiens, HCC4006, HCC4006): 170 nM
IC50 (Homo sapiens, HCT-15, HCT-15): 1250 nM
IC50 (Homo sapiens, HCT-116, HCT-116): 10000 nM
IC50 (Homo sapiens, HD-MY-Z): 143 nM
IC50 (Homo sapiens, HEL 92.1.7, HEL 92.1.7): 12400 nM
IC50 (Homo sapiens, HL-60, HL60): 4270 nM
IC50 (Homo sapiens, HOS): > 29000 nM
IC50 (Homo sapiens, HPAC): 901 nM
IC50 (Homo sapiens, HPAF-II, HPAFII): 957 nM
IC50 (Homo sapiens, HT115, HT115): 1740 nM
IC50 (Homo sapiens, HT-29, HT-29): 1810 nM
IC50 (Homo sapiens, HT-144, HT-144): 1050 nM
IC50 (Homo sapiens, HT-1376, HT-1376): 13100 nM
IC50 (Homo sapiens, HT): 272 nM
IC50 (Homo sapiens, Hs 445, Hs445): 976 nM
IC50 (Homo sapiens, Hs766T): 1970 nM
IC50 (Homo sapiens, Hs-578T, Hs578t): 18200 nM
IC50 (Homo sapiens, HuNS1, Huns1): 887 nM
IC50 (Homo sapiens, HuP-T3, HuP-T3): 3390 nM
IC50 (Homo sapiens, HuP-T4, HuP-T4): 190 nM
IC50 (Homo sapiens, HuT78, HuT78): 103 nM
IC50 (Homo sapiens, IGR-1, IGR-1): 8760 nM
IC50 (Homo sapiens, IGROV-1, IGROV-1): 189 nM
IC50 (Homo sapiens, J82, J82): 20900 nM
IC50 (Homo sapiens, JJN-3, JJN3): 164 nM
IC50 (Homo sapiens, JM1, JM1): 75.8 nM
IC50 (Homo sapiens, JMSU-1, JMSU-1): 583 nM
IC50 (Homo sapiens, JVM-2, JVM-2): 172 nM
IC50 (Homo sapiens, JY): 95.1 nM
IC50 (Homo sapiens, JeKo-1, JeKo-1): 6190 nM
IC50 (Homo sapiens, K562, K562): 310 nM
IC50 (Homo sapiens, KMS-11, KMS-11): 46.8 nM
IC50 (Homo sapiens, KMS-12-BM): 190 nM
IC50 (Homo sapiens, KO52): 513 nM
IC50 (Homo sapiens, KP-3): 99.9 nM
IC50 (Homo sapiens, KP-4, KP-4): 20800 nM
IC50 (Homo sapiens, KPL-1, KPL-1): 4110 nM
IC50 (Homo sapiens, KS-1): 85.5 nM
IC50 (Homo sapiens, KU-19-19, KU-19-19): 1110 nM
IC50 (Homo sapiens, Kasumi 1, KASUMI-1): 13200 nM
IC50 (Homo sapiens, L-363, L363): 65.7 nM
IC50 (Homo sapiens, L-428, L-428): 665 nM
IC50 (Homo sapiens, LC-1sq): 7590 nM
IC50 (Homo sapiens, LK-2, LK2): 89.9 nM
IC50 (Homo sapiens, LN-18, LN-18): 9680 nM
IC50 (Homo sapiens, LN-229, LN-229): 1150 nM
IC50 (Homo sapiens, LNCaP): 18900 nM
IC50 (Homo sapiens, LP-1, LP1): 975 nM
IC50 (Homo sapiens, LS-411N, Ls411N): 442 nM
IC50 (Homo sapiens, LoVo): 494 nM
IC50 (Homo sapiens, Lu-65, LU65): 463 nM
IC50 (Homo sapiens, Lu-99, LU-99): 5300 nM
IC50 (Homo sapiens, M059J): 18900 nM
IC50 (Homo sapiens, M059K): 7890 nM
IC50 (Homo sapiens, MC116, MC116): 82 nM
IC50 (Homo sapiens, MC/CAR): 2740 nM
IC50 (Homo sapiens, MCF7, MCF-7): 215 nM
IC50 (Homo sapiens, MDA-MB-157, MDA-MB-157): 3250 nM
IC50 (Homo sapiens, MDA-MB-231, MDA-MB-231): 2930 nM
IC50 (Homo sapiens, MDA-MB-435S): 2220 nM
IC50 (Homo sapiens, MDA-MB-436, MDA-MB-436): 7130 nM
IC50 (Homo sapiens, MDA-MB-453, MDA-MB-453): 343 nM
IC50 (Homo sapiens, MDA-MB-468, MDA-MB-468): 585 nM
IC50 (Homo sapiens, ME-1, ME1): 2450 nM
IC50 (Homo sapiens, MEL-HO): 1550 nM
IC50 (Homo sapiens, MEL-JUSO): 79.3 nM
IC50 (Homo sapiens, MHH-PREB-1, MHH-PREB-1): 3300 nM
IC50 (Homo sapiens, MIA PaCa-2, Miapaca-2): 263 nM
IC50 (Homo sapiens, MINO): 536 nM
IC50 (Homo sapiens, ML-2, ML-2): 115 nM
IC50 (Homo sapiens, MOLM16, MOLM-16): 31000 nM
IC50 (Homo sapiens, MOLM-13, MOLM-13): 86.2 nM
IC50 (Homo sapiens, MOLP-2, MOLP-2): 22100 nM
IC50 (Homo sapiens, MONO-MAC-6, MonoMac6): 196 nM
IC50 (Homo sapiens, MV4-11, MV-4-11): 94.7 nM
IC50 (Homo sapiens, Maver1, MAVER-1): 133 nM
IC50 (Homo sapiens, NALM-6, NALM-6): 1060 nM
IC50 (Homo sapiens, NB-4, NB-4): 80.9 nM
IC50 (Homo sapiens, NCI-H146, NCI-H146): 411 nM
IC50 (Homo sapiens, NCI-H292, NCI-H292): 1340 nM
IC50 (Homo sapiens, NCI-H322, NCI-H322): 1700 nM
IC50 (Homo sapiens, NCI-H441, NCI-H441): 22400 nM
IC50 (Homo sapiens, NCI-H520, NCI-H520): 26.1 nM
IC50 (Homo sapiens, NCI-H522, NCI-H522): > 29300 nM
IC50 (Homo sapiens, NCI-H526, NCI-H526): 138 nM
IC50 (Homo sapiens, NCI-H526-R): 219 nM
IC50 (Homo sapiens, NCI-H647, NCI-H647): 2530 nM
IC50 (Homo sapiens, NCI-H661, NCI-H661): 30800 nM
